Results from patent publication US11046701B2, “Salt of cetagliptin, preparation method thereof, pharmaceutical composition, and use thereof” (CGENETECH (SUZHOU, CHINA) CO., LTD., priority 2018, dated 2021).
Where “and” joins values, the source holds several entries; their conditions need not be identical. Equal entries are not always repeated.

Columns and labels:
[1] = Dynamic vapor sorption (DVS); assay type: physicochemical
Description: Dynamic vapor sorption (DVS): Dynamic vapor sorption (DVS) curves were acquired by DVS Intrinsic of SMS (Surface Measurement Systems). The relative humidity at 25° C. was corrected by deliquescence points of LiCl, Mg(NO3)2 and KCl.
The crystal form B of phosphate prepared in this example was put into a 1.5 mL small bottle and the small bottles was placed under different conditions: 40° C./75% RH or 25° C./60% RH for one week in an open state, or 80° C. for 24 h. The obtained samples were subjected to XRPD test and HPLC test, and the sealed samples placed at 5° C. were used as reference samples (Initial) for HPLC purity test. […] The weight gain at 25° C./80% RH is 6.5% compared to 0% RH.

[2] = Weight of ICR mice of each group; assay type: in vivo, CD-1 (ICR) mice; conditions: individual animals
Description: (§1) Experimental animals: CD-1 (ICR) mice aged for 4 weeks and weighed for about 18-22 g.
(§2) Grouping and administration scheme: the mice were fed adaptively, randomly grouped according to the weight on the day before experiment, and fasted overnight. […] After the experimental grouping, the group provided separately for detecting the initial basic value of DPPIV was carried out blood sampling, and other animals were intragastrically administrated with the drug at an administration volume of 10 mL/kg, the blood was sampled after the administration, and all other animals were stimulated with glucose administration; the blood was sampled at 20 min, 40 min, 60 min and 120 min after the glucose administration, respectively, and the plasma concentration and the DPPIV activity were detected by using plasma.

[3] = system: DIO mice; experiment: Long-term administration on DIO mice: fasting blood glucose; assay type: in vivo; conditions: for inhibition rate of the rise of the blood glucose: end of experiment (28 days), vs model control group; for fasting blood glucose data after the drug was administrated for 28 days: individual animals
Description: (§3) A solution with a certain concentration was prepared from the crystal form B of the phosphate, and the administration volume was 10 mL/kg.
(§4) Experimental animals: C57BL16 mice aged for 5 weeks and weighed for about 13-16 g.
(§5) Grouping and administration scheme: the mice were fed adaptively and divided into a normal control group and a model group which were fed with high-fat feed (Research diets, D 12492). When the fasting blood glucose of the mice was greater than or equal to 7 mM, it was considered that the mice had become DIO mice. The DIO mice could be selected for the hypoglycemic effect test. The DIO mice were stratified and randomly grouped according to the blood glucose and the weight. […] The weight and the fasting blood glucose were measured weekly; the food amount, the remaining food amount and the food intake were recorded; the mice were fasted overnight at the end of administration, the blood was sampled, and the free fatty acid (NEFA), total cholesterol (TCHO), triglyceride (TG), insulin and DPPIV activity were measured by using serum.

[4] = system: DIO mice; experiment: Long-term administration on DIO mice: serum metabolic parameters (NEFA, TCHO, TG, insulin); assay type: in vivo, C57BL16 mice; conditions: end of long-term administration; for Serum NEFA / Serum TCHO / Serum TG / Serum insulin: fasted overnight
Text: Experimental animals: […] Table 18 was a total data table of the metabolic parameters.

[5] = mouse, in vivo, po
Description: as §3, §4, §5

[6] = Long-term administration on DIO mice: weight, food intake, tolerance; conditions: for weight after the drug was administrated for 28 days: individual animals
Description: as §3, §4, §5

[7] = target: T1, serum DPPIV (Mus musculus, UniProt P28843); experiment: Long-term administration on DIO mice: inhibition of serum DPPIV; assay type: in vivo, C57BL16 mice; parameters: from tissue; host or cells: serum of diet-induced obese C57BL mice after 28 days of oral dosing; conditions: after long-term administration
T1 sequence (P28843 38-760 limits assumed): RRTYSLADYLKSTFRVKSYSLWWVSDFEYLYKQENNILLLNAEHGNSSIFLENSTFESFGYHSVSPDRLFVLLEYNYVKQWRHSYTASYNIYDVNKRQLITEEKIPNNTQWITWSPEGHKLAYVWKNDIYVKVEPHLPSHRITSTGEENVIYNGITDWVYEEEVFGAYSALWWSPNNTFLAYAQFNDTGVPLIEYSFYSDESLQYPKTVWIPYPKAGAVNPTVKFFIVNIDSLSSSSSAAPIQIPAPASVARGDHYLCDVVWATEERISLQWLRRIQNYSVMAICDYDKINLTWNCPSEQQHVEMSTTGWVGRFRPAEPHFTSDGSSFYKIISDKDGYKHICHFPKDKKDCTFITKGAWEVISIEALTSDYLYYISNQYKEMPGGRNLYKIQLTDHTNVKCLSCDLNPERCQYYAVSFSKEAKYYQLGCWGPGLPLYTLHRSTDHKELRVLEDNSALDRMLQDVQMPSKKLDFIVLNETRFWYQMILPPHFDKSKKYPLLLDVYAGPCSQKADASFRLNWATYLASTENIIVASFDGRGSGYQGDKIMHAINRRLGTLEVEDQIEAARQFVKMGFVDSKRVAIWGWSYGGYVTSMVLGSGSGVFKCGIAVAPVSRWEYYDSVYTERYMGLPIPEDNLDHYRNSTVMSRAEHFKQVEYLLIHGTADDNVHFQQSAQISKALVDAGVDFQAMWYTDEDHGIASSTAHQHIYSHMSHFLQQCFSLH
Text: Table 18 was a total data table of the metabolic parameters.

[8] = target: T1, serum DPPIV; experiment: PK/PD experiment of ICR mice: activity of serum DPPIV; assay type: in vivo, CD-1 (ICR) mice; parameters: the plasma concentration and the DPPIV activity were detected by using plasma; from tissue; host or cells: blood plasma/serum of CD-1 (ICR) mice after oral dosing; conditions: ICR mice, 0.1, 0.3, 1 and 3 mg/kg intragastric (FIG. 28)
Description: as §1, §2

For `C[C@@H]1c2cnc(C(F)(F)F)n2CCN1C(=O)C[C@H](N)Cc1cc(F)c(F)cc1F` [DPPIV-P1, (8R)-7-[(3R)-3-amino-1-oxo-4-(2,4,5-trifluorophenyl)butyl]-5,6,7,8-tetrahydro-8-methyl-3-(trifluoromethyl)imidazo[1,5-a]pyrazine], the “weight gain (DVS)” value ([1]; 25° C./80% RH compared to 0% RH) was 6.5%, the “crystal form before and after the DVS test (XRPD)” value ([1]; after DVS test) was “the crystal form remained unchanged” and the weight ([2]; 0.1 mg/kg group, 0.1 mg/kg, in g (unit assumed)) was 22.0 and 24.5 and 24.7 and 25.1 and 26.3 and 26.9 and 24.6 and 23.4 and 24.4 and 25.0 and 23.0 and 24.8 and 24.9 and 26.2 and 24.2. For the same compound, the weight ([2]; 0.3 mg/kg group, 0.3 mg/kg) was 25.3 (2×) and 24.0 and 24.1 and 23.9 and 24.9 (2×) and 24.6 and 26.4 and 26.0 and 25.5 and 22.0 and 22.6 and 25.0 and 24.4, the weight ([2]; 1 mg/kg group, 1 mg/kg) was 26.9 and 25.1 (2×) and 23.5 and 23.6 (2×) and 24.9 (2×) and 24.8 and 26.1 and 25.8 and 26.4 and 25.2 and 22.4 and 23.4 and the weight ([2]; 3 mg/kg group, 3 mg/kg, in g (unit assumed)) was 25.0 and 24.8 and 23.0 and 25.4 and 21.7 and 27.3 and 22.3 and 22.4 and 25.7 and 24.0 and 23.3 and 24.1 and 25.2 and 27.2 and 24.5. For the same compound, the Fasting blood glucose ([3]; 0.3 mg/kg daily intragastric, D 1) was 8.3 ± 1.1 mmol/L, the Fasting blood glucose ([3]; 0.3 mg/kg daily intragastric, D 3) was 8.4 ± 0.9 mmol/L and the Fasting blood glucose ([3]; 0.3 mg/kg daily intragastric, D 7) was 8.4 ± 1.0 mmol/L. The Fasting blood glucose ([3]; 0.3 mg/kg daily intragastric, D 14) was 8.9 ± 1.1 mmol/L, the Fasting blood glucose ([3]; 0.3 mg/kg daily intragastric, D 21) was 8.5 ± 1.0 mmol/L and the Fasting blood glucose ([3]; 0.3 mg/kg daily intragastric, D 28) was 8.3 ± 0.8 mmol/L. The “inhibition rate of the rise of the blood glucose” value (shortened to “inhibition rate”) ([3]; 0.3 mg/kg) was 14.2%, the Fasting blood glucose ([3]; 3 mg/kg daily intragastric, D 1) was 8.3 ± 1.1 mmol/L and the Fasting blood glucose ([3]; 3 mg/kg daily intragastric, D 3) was 8.3 ± 0.9 mmol/L. For the same compound, the Fasting blood glucose ([3]; 3 mg/kg daily intragastric, D 7) was 8.6 ± 2.2 mmol/L, the Fasting blood glucose ([3]; 3 mg/kg daily intragastric, D 14) was 9.1 ± 1.6 mmol/L and the Fasting blood glucose ([3]; 3 mg/kg daily intragastric, D 21) was 8.6 ± 1.0 mmol/L. For the same compound, the Fasting blood glucose ([3]; 3 mg/kg daily intragastric, D 28) was 8.7 ± 0.9 mmol/L, the “inhibition rate” value ([3]; 3 mg/kg) was 9.9% and the Fasting blood glucose ([3]; 30 mg/kg daily intragastric, D 1) was 8.3 ± 1.0 mmol/L. For the same compound, the Fasting blood glucose ([3]; 30 mg/kg daily intragastric, D 3) was 7.8 ± 1.5 mmol/L, the Fasting blood glucose ([3]; 30 mg/kg daily intragastric, D 7) was 7.9 ± 0.8 mmol/L and the Fasting blood glucose ([3]; 30 mg/kg daily intragastric, D 14) was 7.7 ± 0.7 mmol/L. The Fasting blood glucose ([3]; 30 mg/kg daily intragastric, D 21) was 8.1 ± 0.6 mmol/L, the Fasting blood glucose ([3]; 30 mg/kg daily intragastric, D 28) was 7.9 ± 0.6 mmol/L and the “inhibition rate” value ([3]; 30 mg/kg) was 18.5%. For the same compound, the “fasting blood glucose data after the drug was administrated for 28 days” value (shortened to “fasting blood glucose data”) ([3]; 0.3 mg/kg) was 10.3 and 8 (3×) and 7.3 (2×) and 8.8 and 8.7 and 8.3 and 8.6 and 7.9, the “fasting blood glucose data” value ([3]; 3 mg/kg) was 9.2 and 7.8 (2×) and 9.8 and 8.9 and 9 and 7.3 and 9.7 and 8 and 8.3 and 10 and the “fasting blood glucose data” value ([3]; 30 mg/kg, listed as DPPIV-PI) was 8.5 and 7.3 and 7.4 (3×) and 7.6 and 8.9 and 8.2 (2×) and 7.5 and 7.8. The “decrease of insulin compared with the model control group” value ([4]; 0.3 mg/kg) was 28.3%, the “Serum NEFA” value ([4]; 0.3 mg/kg) was 1.21 ± 0.07 mmol/L and the “Serum TCHO” value ([4]; 0.3 mg/kg) was 5.01 ± 0.58 mmol/L. The “Serum TG” value ([4]; 0.3 mg/kg) was 1.04 ± 0.13 mmol/L, the Serum insulin ([4]; 0.3 mg/kg) was 3.2 ± 2.44 ng/mL and the “Serum NEFA” value ([4]; 3 mg/kg) was 1.08 ± 0.14 mmol/L. For the same compound, the “Serum TCHO” value ([4]; 3 mg/kg) was 5.06 ± 0.65 mmol/L, the “Serum TG” value ([4]; 3 mg/kg) was 0.94 ± 0.15 mmol/L and the Serum insulin ([4]; 3 mg/kg) was 4.7 ± 3.55 ng/mL. For the same compound, the “decrease of total cholesterol (TCHO) compared with the model control group” value ([4]; 30 mg/kg) was 18.4%, the “Serum NEFA” value ([4]; 30 mg/kg) was 1.01 ± 0.11 mmol/L and the “Serum TCHO” value ([4]; 30 mg/kg) was 4.36 ± 0.45 mmol/L. For the same compound, the “Serum TG” value ([4]; 30 mg/kg) was 0.83 ± 0.11 mmol/L, the Serum insulin ([4]; 30 mg/kg) was 4.9 ± 4.04 ng/mL and the “tolerance after long-term administration” value [5] was “good in tolerance and not easy to induce hypoglycemia”. For the same compound, the Food intake ([6]; 0.3 mg/kg) was 2.2 ± 0.3 g/day, the weight ([6]; 0.3 mg/kg daily, D1) was 38.9 ± 3.8 g and the weight ([6]; 0.3 mg/kg daily, D7) was 37.4 ± 3.4 g. It also gave a weight ([6]; 0.3 mg/kg daily, D14) of 38.2 ± 4.2 g, a weight ([6]; 0.3 mg/kg daily, D21) of 40.2 ± 4.2 g and a weight ([6]; 0.3 mg/kg daily, D28) of 39.5 ± 5.0 g. The weight ([6]; 0.3 mg/kg, total data table of metabolic parameters (end of experiment)) was 39.5 ± 5.0 g, the Food intake ([6]; 3 mg/kg) was 2.2 ± 0.3 g/day and the weight ([6]; 3 mg/kg daily, D1) was 41.5 ± 3.5 g. The weight ([6]; 3 mg/kg daily, D7) was 40.9 ± 4.2 g, the weight ([6]; 3 mg/kg daily, D14) was 43.1 ± 4.9 g and the weight ([6]; 3 mg/kg daily, D21) was 44.2 ± 5.1 g. It also gave a weight ([6]; 3 mg/kg daily, D28) of 45.0 ± 5.4 g, a weight ([6]; 3 mg/kg, total data table of metabolic parameters (end of experiment)) of 45.0 ± 5.4 g and a Food intake ([6]; 30 mg/kg) of 2.2 ± 0.4 g/day. For the same compound, the weight ([6]; 30 mg/kg daily, D1) was 41.5 ± 3.1 g, the weight ([6]; 30 mg/kg daily, D7) was 40.5 ± 3.0 g and the weight ([6]; 30 mg/kg daily, D14) was 41.2 ± 4.4 g. It also gave a weight ([6]; 30 mg/kg daily, D21) of 41.3 ± 3.5 g, a weight ([6]; 30 mg/kg daily, D28) of 42.9 ± 5.6 g and a weight ([6]; 30 mg/kg, total data table of metabolic parameters (end of experiment)) of 42.9 ± 5.6 g. The “weight after the drug was administrated for 28 days” value (from here on “weight … for 28 days”) ([6]; 0.3 mg/kg) was 39.9 (2×) and 31.0 and 34.8 and 41.6 and 32.2 and 40.5 and 40.8 and 45.6 and 47.1 and 41.0, the “weight … for 28 days” value ([6]; 3 mg/kg) was 46.8 (2×) and 42.6 and 54.1 and 48.3 and 34.4 and 42.2 and 43.1 and 46.4 and 39.7 and 50.2 and the “weight … for 28 days” value ([6]; 30 mg/kg, in g) was 46.6 and 36.5 and 43.6 and 36.8 and 36.7 and 39.3 and 38.7 and 48.2 and 51.8 and 48.6 and 41.0. For the same compound, the “inhibition effect on the serum DPPIV compared with sitagliptin phosphate” value [7] was “obviously higher than that of sitagliptin phosphate”, the inhibition at 0.3 mg/kg ([7]; mouse, 0.3 mg/kg, vs model control group, read-out: inhibition rate against DPPIV (serum)) was 47.1% and the inhibition at 3 mg/kg ([7]; mouse, 3 mg/kg, vs model control group, read-out: inhibition rate against DPPIV (serum)) was 82.7%. For the same compound, the inhibition at 30 mg/kg ([7]; mouse, 30 mg/kg, vs model control group, read-out: inhibition rate against DPPIV (serum)) was 95.3% and the “influence on the activity of serum DPPIV” value [8] was “good dose-effect relationship”.
